Data reported in paper PMC6934184, “Selective DNA-PKcs inhibition extends the therapeutic index of localized radiotherapy and chemotherapy” (The Journal of Clinical Investigation, 2019).

Target: T1, PRKCA (PKC alpha) (Homo sapiens, UniProt P17252)
T1 construct: purchased Thermo Fisher Scientific (Life Technologies) SelectScreen
Assay: SelectScreen Z'LYTE
Format: biochemical
In short: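 Percent values come from Thermo SelectScreen profiling of NU5455, combining activity and binding assays. CSF1R was run in Z'LYTE format at Km app ATP, and CAMK1 in Adapta format with ATP listed at 10.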

CN(C(=O)CN1CCOCC1)c1ccc2sc3c(-c4cccc5c(=O)cc(N6CC7CCC(C6)O7)oc45)cccc3c2c1 [NU5455]
inhibition at 1 µM: -2%
